Molecules are shown by their SMILES. Where only a bound is given, the exact number is not on record here.

Assay [1] addresses Mitogen-activated protein kinase 14 (Homo sapiens, UniProt Q16539). As to the kind of experiment: Inhibition of recombinant MAPK14 (unknown origin) by FRET-based Z'-LYTE assay.
Assay [2] has as its target Mitogen-activated protein kinase 1 (Homo sapiens, UniProt P28482). As to the kind of experiment: Inhibition of recombinant ERK2 (unknown origin) by FRET-based Z'-LYTE assay.
Assay [3] has as its target RAC-beta serine/threonine-protein kinase (Homo sapiens, UniProt P31751). As to the kind of experiment: Inhibition of recombinant AKT2 (unknown origin) by FRET-based Z'-LYTE assay.
The target in assay [4] is Ribosomal protein S6 kinase beta-1 (Homo sapiens, UniProt P23443). As to the kind of experiment: Inhibition of recombinant RPS6K1 (unknown origin) by FRET-based Z'-LYTE assay.
Assay [5] addresses T1, Inhibitor of nuclear factor kappa-B kinase subunit beta (Homo sapiens, UniProt O14920).
T1 sequence (O14920 whole entry): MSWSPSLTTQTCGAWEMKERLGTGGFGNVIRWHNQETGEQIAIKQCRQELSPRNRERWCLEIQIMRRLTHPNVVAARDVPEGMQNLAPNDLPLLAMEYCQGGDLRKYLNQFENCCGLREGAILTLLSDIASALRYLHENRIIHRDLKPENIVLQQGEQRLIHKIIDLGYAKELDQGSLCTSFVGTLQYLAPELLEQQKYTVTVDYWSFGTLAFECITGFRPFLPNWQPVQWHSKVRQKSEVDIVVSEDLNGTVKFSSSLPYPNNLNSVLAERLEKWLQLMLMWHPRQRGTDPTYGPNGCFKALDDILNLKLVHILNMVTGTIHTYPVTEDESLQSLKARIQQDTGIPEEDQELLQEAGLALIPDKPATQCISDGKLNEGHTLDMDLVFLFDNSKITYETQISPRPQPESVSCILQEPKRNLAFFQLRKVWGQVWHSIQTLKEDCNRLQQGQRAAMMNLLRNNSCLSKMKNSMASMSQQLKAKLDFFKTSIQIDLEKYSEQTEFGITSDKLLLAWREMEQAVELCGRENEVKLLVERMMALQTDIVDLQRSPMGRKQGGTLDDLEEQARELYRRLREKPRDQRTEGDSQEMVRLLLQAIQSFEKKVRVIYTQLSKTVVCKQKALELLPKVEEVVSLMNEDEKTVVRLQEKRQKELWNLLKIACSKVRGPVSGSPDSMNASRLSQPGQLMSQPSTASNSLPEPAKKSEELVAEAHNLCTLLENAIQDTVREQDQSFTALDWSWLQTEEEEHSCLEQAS
As to the kind of experiment: Inhibition of recombinant IKBKB (unknown origin) by FRET-based Z'-LYTE assay.

Assay [6] has as its target MAP kinase-activated protein kinase 2 (Homo sapiens, UniProt P49137). The experiment in a line: Inhibition of recombinant MAPKAPK2 (unknown origin) by FRET-based Z'-LYTE assay.
The target of assay [7] is RAF proto-oncogene serine/threonine-protein kinase (Homo sapiens, UniProt P04049). As to the kind of experiment: Inhibition of recombinant RAF1 (unknown origin) by cascade reaction assay.
Assay [8] addresses T2, Serine/threonine-protein kinase Nek1 (Homo sapiens, UniProt Q96PY6).
T2 sequence (Q96PY6 whole entry): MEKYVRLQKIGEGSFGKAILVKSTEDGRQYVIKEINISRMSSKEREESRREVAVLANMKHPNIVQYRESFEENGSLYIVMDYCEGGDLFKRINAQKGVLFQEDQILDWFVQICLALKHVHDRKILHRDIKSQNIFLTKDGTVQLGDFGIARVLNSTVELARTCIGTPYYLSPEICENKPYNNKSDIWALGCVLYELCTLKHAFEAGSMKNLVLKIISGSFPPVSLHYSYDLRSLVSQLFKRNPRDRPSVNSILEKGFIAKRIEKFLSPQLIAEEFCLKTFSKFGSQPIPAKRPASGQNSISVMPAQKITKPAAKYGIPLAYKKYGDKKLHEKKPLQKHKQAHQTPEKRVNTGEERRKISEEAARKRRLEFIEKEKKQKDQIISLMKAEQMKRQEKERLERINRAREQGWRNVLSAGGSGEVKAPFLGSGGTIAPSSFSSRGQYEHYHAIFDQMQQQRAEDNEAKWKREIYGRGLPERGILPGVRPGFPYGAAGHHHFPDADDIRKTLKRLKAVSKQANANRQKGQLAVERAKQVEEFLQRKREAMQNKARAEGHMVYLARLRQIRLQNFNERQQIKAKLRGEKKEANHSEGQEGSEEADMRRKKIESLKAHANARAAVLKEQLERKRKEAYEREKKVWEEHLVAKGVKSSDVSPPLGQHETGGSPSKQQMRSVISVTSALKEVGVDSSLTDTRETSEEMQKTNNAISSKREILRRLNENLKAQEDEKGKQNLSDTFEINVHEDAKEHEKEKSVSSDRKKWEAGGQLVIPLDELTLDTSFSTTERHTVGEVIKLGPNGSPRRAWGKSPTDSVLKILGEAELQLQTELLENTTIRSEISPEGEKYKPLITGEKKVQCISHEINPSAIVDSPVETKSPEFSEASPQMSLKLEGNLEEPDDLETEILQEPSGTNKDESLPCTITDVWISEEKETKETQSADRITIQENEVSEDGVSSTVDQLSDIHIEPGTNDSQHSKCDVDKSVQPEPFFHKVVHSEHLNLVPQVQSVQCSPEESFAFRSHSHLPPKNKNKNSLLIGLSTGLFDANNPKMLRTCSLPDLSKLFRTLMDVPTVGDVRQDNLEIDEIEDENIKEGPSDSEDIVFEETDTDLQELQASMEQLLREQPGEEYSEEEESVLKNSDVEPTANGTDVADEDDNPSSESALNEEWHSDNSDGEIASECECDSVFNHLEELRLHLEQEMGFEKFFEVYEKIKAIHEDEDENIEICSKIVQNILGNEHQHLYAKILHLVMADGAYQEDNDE
As to the kind of experiment: Inhibition of recombinant NEK1 (unknown origin) by FRET-based Z'-LYTE assay.

The target in assay [9] is Vascular endothelial growth factor receptor 2 (Homo sapiens, UniProt P35968). As to the kind of experiment: Inhibition of recombinant KDR (unknown origin) by FRET-based Z'-LYTE assay.
The target of assay [10] is AMP-activated protein kinase (AMPK) alpha-1/beta-1/gamma-1 (Homo sapiens, UniProt P54619+Q13131+Q9Y478). The experiment in a line: Inhibition of recombinant AMPK A1/B1/G1 (unknown origin) by FRET-based Z'-LYTE assay. The class given is protein-complex assay.
For assay [11], the target named is RAC-alpha serine/threonine-protein kinase (Homo sapiens, UniProt P31749). As to the kind of experiment: Inhibition of recombinant AKT1 (unknown origin) by FRET-based Z'-LYTE assay.
Assay [12] concerns the target Dual specificity mitogen-activated protein kinase kinase 1 (Homo sapiens, UniProt Q02750). As to the kind of experiment: Inhibition of recombinant MEK1 (unknown origin) by cascade reaction assay.

Chain of MAP kinase-activated protein kinase 2 (P49137 whole entry): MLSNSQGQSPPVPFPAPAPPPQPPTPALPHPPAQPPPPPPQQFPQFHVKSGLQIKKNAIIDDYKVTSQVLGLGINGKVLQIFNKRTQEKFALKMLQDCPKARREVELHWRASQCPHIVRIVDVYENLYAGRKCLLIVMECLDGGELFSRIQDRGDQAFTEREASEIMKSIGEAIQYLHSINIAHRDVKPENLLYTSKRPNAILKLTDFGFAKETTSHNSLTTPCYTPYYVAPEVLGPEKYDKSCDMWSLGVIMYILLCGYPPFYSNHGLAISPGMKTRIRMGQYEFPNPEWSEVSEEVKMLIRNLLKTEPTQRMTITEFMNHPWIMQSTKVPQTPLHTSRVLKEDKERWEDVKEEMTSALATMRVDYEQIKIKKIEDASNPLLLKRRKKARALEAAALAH
Chain of Mitogen-activated protein kinase 14 (Q16539 whole entry): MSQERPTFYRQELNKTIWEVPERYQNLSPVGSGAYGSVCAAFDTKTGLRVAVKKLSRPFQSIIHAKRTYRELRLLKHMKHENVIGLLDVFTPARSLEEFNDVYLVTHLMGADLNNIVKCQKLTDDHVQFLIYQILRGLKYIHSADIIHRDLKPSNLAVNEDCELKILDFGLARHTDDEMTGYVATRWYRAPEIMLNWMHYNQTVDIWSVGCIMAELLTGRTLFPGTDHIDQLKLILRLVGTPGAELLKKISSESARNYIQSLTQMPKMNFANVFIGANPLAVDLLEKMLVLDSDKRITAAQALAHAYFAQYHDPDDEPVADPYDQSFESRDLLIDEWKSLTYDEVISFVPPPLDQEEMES
Chain of Mitogen-activated protein kinase 1 (P28482 whole entry): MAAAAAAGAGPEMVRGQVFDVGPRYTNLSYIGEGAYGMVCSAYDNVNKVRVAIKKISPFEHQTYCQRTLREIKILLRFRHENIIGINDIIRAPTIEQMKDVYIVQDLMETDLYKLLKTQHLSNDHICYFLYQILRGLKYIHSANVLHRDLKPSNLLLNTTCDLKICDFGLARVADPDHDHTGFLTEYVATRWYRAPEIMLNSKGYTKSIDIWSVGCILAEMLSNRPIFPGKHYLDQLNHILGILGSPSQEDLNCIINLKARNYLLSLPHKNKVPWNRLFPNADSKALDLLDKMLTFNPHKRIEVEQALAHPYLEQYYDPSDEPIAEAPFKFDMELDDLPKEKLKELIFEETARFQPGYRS
Chain of RAF proto-oncogene serine/threonine-protein kinase (P04049 whole entry): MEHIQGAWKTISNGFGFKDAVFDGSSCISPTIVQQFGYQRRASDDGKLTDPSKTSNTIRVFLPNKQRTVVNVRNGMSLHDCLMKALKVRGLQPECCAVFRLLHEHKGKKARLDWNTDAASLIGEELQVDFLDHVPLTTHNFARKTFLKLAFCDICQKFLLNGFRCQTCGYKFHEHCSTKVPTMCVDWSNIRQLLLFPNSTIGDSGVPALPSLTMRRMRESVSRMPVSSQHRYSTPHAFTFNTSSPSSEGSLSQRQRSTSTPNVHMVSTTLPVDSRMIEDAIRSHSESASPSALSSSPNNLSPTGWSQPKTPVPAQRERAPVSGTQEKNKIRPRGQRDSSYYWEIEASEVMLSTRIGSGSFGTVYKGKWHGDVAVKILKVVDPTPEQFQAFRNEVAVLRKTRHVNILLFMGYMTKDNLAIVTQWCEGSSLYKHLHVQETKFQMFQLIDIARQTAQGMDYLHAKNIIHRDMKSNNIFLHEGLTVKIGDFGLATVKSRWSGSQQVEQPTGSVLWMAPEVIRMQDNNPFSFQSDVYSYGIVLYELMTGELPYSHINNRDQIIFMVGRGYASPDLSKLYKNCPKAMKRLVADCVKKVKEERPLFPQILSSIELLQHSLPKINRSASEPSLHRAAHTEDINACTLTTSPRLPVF
Chain of RAC-beta serine/threonine-protein kinase (P31751 whole entry): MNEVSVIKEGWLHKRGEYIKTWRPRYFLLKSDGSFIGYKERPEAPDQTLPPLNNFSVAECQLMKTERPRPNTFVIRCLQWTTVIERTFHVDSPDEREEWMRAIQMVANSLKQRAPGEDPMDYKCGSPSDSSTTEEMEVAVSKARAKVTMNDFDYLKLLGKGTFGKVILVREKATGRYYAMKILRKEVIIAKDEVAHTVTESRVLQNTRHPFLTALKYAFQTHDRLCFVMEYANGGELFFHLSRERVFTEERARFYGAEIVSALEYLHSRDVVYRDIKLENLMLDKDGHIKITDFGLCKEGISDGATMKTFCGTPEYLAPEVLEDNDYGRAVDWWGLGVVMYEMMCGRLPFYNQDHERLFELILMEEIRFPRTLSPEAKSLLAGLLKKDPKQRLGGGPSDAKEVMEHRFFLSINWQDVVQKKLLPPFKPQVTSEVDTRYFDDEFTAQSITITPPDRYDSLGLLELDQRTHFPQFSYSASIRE
Chain of Ribosomal protein S6 kinase beta-1 (P23443 whole entry): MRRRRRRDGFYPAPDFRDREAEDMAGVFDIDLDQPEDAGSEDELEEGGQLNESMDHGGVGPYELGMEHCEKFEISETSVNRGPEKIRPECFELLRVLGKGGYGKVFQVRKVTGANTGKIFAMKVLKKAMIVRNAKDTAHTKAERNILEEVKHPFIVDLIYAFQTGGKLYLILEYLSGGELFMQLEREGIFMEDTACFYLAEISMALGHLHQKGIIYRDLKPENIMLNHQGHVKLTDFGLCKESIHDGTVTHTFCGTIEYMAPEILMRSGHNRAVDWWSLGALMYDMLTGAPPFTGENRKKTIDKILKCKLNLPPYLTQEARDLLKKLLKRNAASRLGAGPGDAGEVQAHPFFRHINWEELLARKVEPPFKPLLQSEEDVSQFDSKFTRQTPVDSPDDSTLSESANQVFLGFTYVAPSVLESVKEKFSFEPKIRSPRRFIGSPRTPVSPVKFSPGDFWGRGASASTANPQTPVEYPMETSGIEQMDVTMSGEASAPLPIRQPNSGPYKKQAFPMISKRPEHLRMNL
Chain of Dual specificity mitogen-activated protein kinase kinase 1 (Q02750 whole entry): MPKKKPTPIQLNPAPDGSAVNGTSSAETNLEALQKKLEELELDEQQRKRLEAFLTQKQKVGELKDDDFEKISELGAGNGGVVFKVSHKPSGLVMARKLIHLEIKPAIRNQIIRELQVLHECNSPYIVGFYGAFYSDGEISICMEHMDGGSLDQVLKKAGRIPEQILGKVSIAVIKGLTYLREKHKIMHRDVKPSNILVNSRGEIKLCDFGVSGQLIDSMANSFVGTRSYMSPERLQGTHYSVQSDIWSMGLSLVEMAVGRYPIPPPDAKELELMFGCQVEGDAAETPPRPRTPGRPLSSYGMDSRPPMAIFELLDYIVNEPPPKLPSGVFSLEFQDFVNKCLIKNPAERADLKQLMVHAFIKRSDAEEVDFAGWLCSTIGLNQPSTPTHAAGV
Chain of Vascular endothelial growth factor receptor 2 (P35968 whole entry): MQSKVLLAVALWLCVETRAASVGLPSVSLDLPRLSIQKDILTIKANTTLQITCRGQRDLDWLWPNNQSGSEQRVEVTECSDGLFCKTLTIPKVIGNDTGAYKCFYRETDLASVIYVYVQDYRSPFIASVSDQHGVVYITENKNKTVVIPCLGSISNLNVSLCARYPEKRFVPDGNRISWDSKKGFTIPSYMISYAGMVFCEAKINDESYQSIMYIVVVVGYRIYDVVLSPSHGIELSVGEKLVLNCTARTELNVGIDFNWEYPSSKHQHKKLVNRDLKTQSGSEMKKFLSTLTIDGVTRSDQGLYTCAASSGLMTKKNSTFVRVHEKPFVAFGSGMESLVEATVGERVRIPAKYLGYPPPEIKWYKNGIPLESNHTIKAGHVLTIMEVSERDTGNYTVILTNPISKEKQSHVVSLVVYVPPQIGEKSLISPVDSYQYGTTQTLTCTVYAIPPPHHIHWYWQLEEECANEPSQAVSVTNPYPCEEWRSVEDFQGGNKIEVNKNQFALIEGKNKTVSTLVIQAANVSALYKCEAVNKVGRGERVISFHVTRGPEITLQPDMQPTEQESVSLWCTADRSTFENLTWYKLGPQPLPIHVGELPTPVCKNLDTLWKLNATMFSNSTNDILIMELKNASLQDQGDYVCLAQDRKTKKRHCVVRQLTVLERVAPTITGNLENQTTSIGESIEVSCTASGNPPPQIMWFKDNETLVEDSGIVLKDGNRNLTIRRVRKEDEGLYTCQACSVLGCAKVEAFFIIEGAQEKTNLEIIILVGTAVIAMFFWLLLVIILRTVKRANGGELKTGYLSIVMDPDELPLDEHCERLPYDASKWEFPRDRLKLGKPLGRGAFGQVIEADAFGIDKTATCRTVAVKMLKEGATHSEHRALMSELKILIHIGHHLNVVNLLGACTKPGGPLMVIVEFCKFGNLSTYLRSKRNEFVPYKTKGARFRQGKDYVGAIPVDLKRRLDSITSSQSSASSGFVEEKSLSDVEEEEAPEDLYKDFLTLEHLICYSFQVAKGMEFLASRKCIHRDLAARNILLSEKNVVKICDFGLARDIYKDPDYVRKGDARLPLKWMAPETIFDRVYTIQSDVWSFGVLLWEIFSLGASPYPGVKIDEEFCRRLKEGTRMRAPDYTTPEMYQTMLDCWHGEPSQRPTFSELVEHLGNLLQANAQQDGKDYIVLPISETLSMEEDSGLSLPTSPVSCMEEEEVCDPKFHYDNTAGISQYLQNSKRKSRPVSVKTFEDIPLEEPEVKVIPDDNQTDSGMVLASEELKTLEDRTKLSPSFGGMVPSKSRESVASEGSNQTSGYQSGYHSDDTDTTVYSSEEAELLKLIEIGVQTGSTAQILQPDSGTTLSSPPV
Chain of RAC-alpha serine/threonine-protein kinase (P31749 whole entry): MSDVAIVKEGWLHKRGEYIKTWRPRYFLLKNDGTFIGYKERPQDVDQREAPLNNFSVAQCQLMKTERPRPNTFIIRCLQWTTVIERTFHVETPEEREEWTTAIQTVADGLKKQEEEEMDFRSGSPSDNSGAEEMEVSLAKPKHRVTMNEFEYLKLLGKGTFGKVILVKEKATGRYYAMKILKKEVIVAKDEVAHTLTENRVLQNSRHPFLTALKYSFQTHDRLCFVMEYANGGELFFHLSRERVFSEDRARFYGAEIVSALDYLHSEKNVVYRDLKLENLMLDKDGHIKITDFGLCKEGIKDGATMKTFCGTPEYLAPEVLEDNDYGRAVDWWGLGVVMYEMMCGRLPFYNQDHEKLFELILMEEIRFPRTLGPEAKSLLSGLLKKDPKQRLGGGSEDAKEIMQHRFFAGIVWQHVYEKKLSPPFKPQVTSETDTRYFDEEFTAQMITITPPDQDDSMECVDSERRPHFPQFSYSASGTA

A word on the IC50: it is the point on the concentration scale where inhibition reaches its midpoint. Regarding `CN1C/C(=C\c2ccccn2)C(=O)[C@H](Cc2ccccn2)C1`, the IC50 is over 100 µM in assay [1]; over 100 µM in [2]; over 100 µM in [3]; over 100 µM in assay [4]; 15 µM in [5]; over 100 µM in assay [6]. Moreover, the IC50 in [7] was over 100 µM.
For `CN1C/C(=C\c2ccccn2)C(=O)[C@@H](Cc2ccccn2)C1`, the IC50 is over 100 µM in assay [1]; over 100 µM in [2]; over 100 µM in [3]; over 100 µM in assay [4]; 15 µM in assay [5]; over 100 µM in assay [6]. Further, the IC50 in [7] is over 100 µM.
Take `CN1C/C(=C\c2ccccn2)C(=O)/C(=C/c2ccccn2)C1`: the IC50 in assay [1] is over 100 µM; in [2], 27 µM; in [8], 3.5 µM; in assay [9] it was 1.3 µM; in assay [3], 1.9 µM; in [4] it was 6 µM. In addition, the IC50 in assay [5] worked out at 4 µM; in assay [10] it was 2.5 µM; in [11], 2.6 µM; in assay [12], 9 µM; in assay [6], 9.8 µM.
Turning to `O=C1/C(=C/c2ccccn2)CSC/C1=C\c1ccccn1`, the IC50 was over 100 µM in assay [1]; 20 µM in assay [2]; 14 µM in [8]; 6.5 µM in [9]; 3.3 µM in assay [3]; 12 µM in assay [4]. The IC50 in assay [5] was 34 µM; in assay [10], 26 µM; in [11], 3.6 µM; in assay [12] it was 30 µM; in assay [6], 16 µM; in [7], 8.5 µM.

Values taken from ChEMBL document CHEMBL2331439 (J Med Chem, 2013).
